Reference: US8802597B2, “Herbicidal pyrimidines” (E I du Pont de Nemours and Company, priority 2003, dated 2014)

Experiments:
Assay in all cases: Test C pre/postemergence
Assay type in all cases: in vivo
[1] = system: cocklebur (Xanthium strumarium); conditions: for Plant response rating (scale of 0 to 100), Cocklebur / Cocklebur plant response rating: Postemergence; for Cocklebur plant response rating: scale 0 to 100 (0 no effect, 100 complete control); for Plant response rating, Cocklebur: Preemergence
In short: (§1)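 Greenhouse pot test: seeds treated preemergence, or plants at 2–18 cm (1- to 4-leaf stage) treated postemergence, with compound in non-phytotoxic solvent plus surfactant. Visual rating versus untreated controls after 12–14 days, scale 0 (no effect) to 100 (complete control); dash means not tested.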

[2] = system: morningglory (Ipomoea coccinea); conditions: for Plant response rating (scale of 0 to 100), Morningglory / Morningglory plant response rating: Postemergence; for Morningglory plant response rating: scale 0 to 100 (0 no effect, 100 complete control); for Plant response rating, Morningglory: Preemergence
In short: as §1

[3] = system: common (oilseed) sunflower (Helianthus annuus); conditions: Preemergence
In short: as §1

[4] = system: yellow nutsedge (Cyperus esculentus); conditions: for Plant response rating (scale of 0 to 100), Nutsedge, Yellow / Nutsedge, Yellow plant response rating: Postemergence; for Nutsedge, Yellow plant response rating: scale 0 to 100 (0 no effect, 100 complete control); for Plant response rating, Nutsedge, Yellow: Preemergence, scale 0 to 100, 0 no effect, 100 complete control
In short: as §1

[5] = system: giant foxtail (Setaria faberii); conditions: for Plant response rating (scale of 0 to 100), Foxtail, Giant / Foxtail, Giant plant response rating: Postemergence; for Foxtail, Giant plant response rating: scale 0 to 100 (0 no effect, 100 complete control); for Plant response rating, Foxtail, Giant: Preemergence
In short: as §1

[6] = system: woolly cupgrass (Eriochloa villosa); conditions: for Plant response rating (scale of 0 to 100), Cupgrass, Woolly / Cupgrass, Woolly plant response rating: Postemergence; for Cupgrass, Woolly plant response rating: scale 0 to 100 (0 no effect, 100 complete control); for Plant response rating, Cupgrass, Woolly: Preemergence
In short: as §1

[7] = system: velvetleaf (Abutilon theophrasti); conditions: for Plant response rating (scale of 0 to 100), Velvetleaf / Velvetleaf plant response rating: Postemergence; for Velvetleaf plant response rating: scale 0 to 100 (0 no effect, 100 complete control); for Plant response rating, Velvetleaf: Preemergence
In short: as §1

kochia (Kochia scoparia) = conditions: for Plant response rating (scale of 0 to 100), Kochia / Kochia plant response rating: Postemergence; for Kochia plant response rating: scale 0 to 100 (0 no effect, 100 complete control); for Plant response rating, Kochia: Preemergence
In short: as §1

[8] = system: crabgrass (Digitaria sanguinalis); conditions: for Plant response rating (scale of 0 to 100), Crabgrass / Crabgrass plant response rating: Postemergence; for Crabgrass plant response rating: scale 0 to 100 (0 no effect, 100 complete control); for Plant response rating, Crabgrass: Preemergence
In short: as §1

[9] = system: johnsongrass (Sorghum halepense); conditions: for Plant response rating (scale of 0 to 100), Johnsongrass / Johnsongrass plant response rating: Postemergence; for Johnsongrass plant response rating: scale 0 to 100 (0 no effect, 100 complete control); for Plant response rating, Johnsongrass: Preemergence
In short: as §1

[10] = system: pigweed (Amaranthus retroflexus); conditions: for Plant response rating (scale of 0 to 100), Pigweed / Pigweed plant response rating: Postemergence; for Pigweed plant response rating: scale 0 to 100 (0 no effect, 100 complete control); for Plant response rating, Pigweed: Preemergence
In short: as §1

[11] = system: Surinam grass (Brachiaria decumbens); conditions: for Plant response rating (scale of 0 to 100), Surinam Grass / Surinam Grass plant response rating: Postemergence; for Surinam Grass plant response rating: scale 0 to 100 (0 no effect, 100 complete control); for Plant response rating, Surinam Grass: Preemergence
In short: as §1

[12] = 16 g ai/ha, scale 0 to 100, 0 no effect, 100 complete control
[13] = 31 g ai/ha, scale 0 to 100, 0 no effect, 100 complete control
[14] = 62 g ai/ha, scale 0 to 100, 0 no effect, 100 complete control

In the case of COCc1nc(C2CC2)nc(N)c1Br [Compound 11], the “Plant response rating (scale of 0 to 100), Cocklebur” value ([1]; 16 g ai/ha) is reported as 0, the “Plant response rating (scale of 0 to 100), Cocklebur” value ([1]; 31 g ai/ha) is reported as 0 and the “Cocklebur plant response rating” value ([1]; 62 g ai/ha) is reported as 25. For the same compound, the “Cocklebur plant response rating” value ([1]; 125 g ai/ha) was 40, the “Plant response rating, Cocklebur” value [1, 12] was 0 and the “Plant response rating, Cocklebur” value [1, 13] was 0. For the same compound, the “Plant response rating, Cocklebur” value [1, 14] was 0, the “Plant response rating, Cocklebur” value ([1]; 125 g ai/ha, scale 0 to 100) was 0 and the “Plant response rating (scale of 0 to 100), Morningglory” value ([2]; 16 g ai/ha) was 0. The “Plant response rating (scale of 0 to 100), Morningglory” value ([2]; 31 g ai/ha) was 0, the “Morningglory plant response rating” value ([2]; 62 g ai/ha) was 0 and the “Morningglory plant response rating” value ([2]; 125 g ai/ha) was 0. The “Plant response rating, Morningglory” value [2, 12] was 0, the “Plant response rating, Morningglory” value [2, 13] was 0 and the “Plant response rating, Morningglory” value [2, 14] was 0. The “Plant response rating, Morningglory” value ([2]; 125 g ai/ha, scale 0 to 100) was 0, the “Plant response rating, Sunflower” value [3, 12] was 0 and the “Plant response rating, Sunflower” value [3, 13] was 0. The “Plant response rating, Sunflower” value [3, 14] was 0, the “Plant response rating, Sunflower” value ([3]; 125 g ai/ha, scale 0 to 100) was 0 and the “Plant response rating (scale of 0 to 100), Nutsedge, Yellow” value ([4]; 16 g ai/ha) was 0. For the same compound, the “Plant response rating (scale of 0 to 100), Nutsedge, Yellow” value ([4]; 31 g ai/ha) was 0, the “Nutsedge, Yellow plant response rating” value ([4]; 62 g ai/ha) was 0 and the “Nutsedge, Yellow plant response rating” value ([4]; 125 g ai/ha) was 0. For the same compound, the “Plant response rating, Nutsedge, Yellow” value ([4]; 16 g ai/ha) was 0, the “Plant response rating, Nutsedge, Yellow” value ([4]; 31 g ai/ha) was 0 and the “Plant response rating, Nutsedge, Yellow” value ([4]; 62 g ai/ha) was 0. The “Plant response rating (scale of 0 to 100), Foxtail, Giant” value ([5]; 16 g ai/ha) was 0, the “Plant response rating (scale of 0 to 100), Foxtail, Giant” value ([5]; 31 g ai/ha) was 0 and the “Foxtail, Giant plant response rating” value ([5]; 62 g ai/ha) was 0. The “Foxtail, Giant plant response rating” value ([5]; 125 g ai/ha) was 0, the “Plant response rating, Foxtail, Giant” value [5, 12] was 0 and the “Plant response rating, Foxtail, Giant” value [5, 13] was 0. The “Plant response rating, Foxtail, Giant” value [5, 14] was 0, the “Plant response rating, Foxtail, Giant” value ([5]; 125 g ai/ha, scale 0 to 100) was 20 and the “Plant response rating (scale of 0 to 100), Cupgrass, Woolly” value ([6]; 16 g ai/ha) was 0. The “Plant response rating (scale of 0 to 100), Cupgrass, Woolly” value ([6]; 31 g ai/ha) was 0, the “Cupgrass, Woolly plant response rating” value ([6]; 62 g ai/ha) was 0 and the “Cupgrass, Woolly plant response rating” value ([6]; 125 g ai/ha) was 0. The “Plant response rating, Cupgrass, Woolly” value [6, 12] was 0, the “Plant response rating, Cupgrass, Woolly” value [6, 13] was 0 and the “Plant response rating, Cupgrass, Woolly” value [6, 14] was 0. The “Plant response rating, Cupgrass, Woolly” value ([6]; 125 g ai/ha, scale 0 to 100) was 0, the “Plant response rating (scale of 0 to 100), Velvetleaf” value ([7]; 16 g ai/ha) was 20 and the “Plant response rating (scale of 0 to 100), Velvetleaf” value ([7]; 31 g ai/ha) was 50. For the same compound, the “Velvetleaf plant response rating” value ([7]; 62 g ai/ha) was 60, the “Velvetleaf plant response rating” value ([7]; 125 g ai/ha) was 75 and the “Plant response rating, Velvetleaf” value [7, 12] was 0. The “Plant response rating, Velvetleaf” value [7, 13] was 0, the “Plant response rating, Velvetleaf” value [7, 14] was 0 and the “Plant response rating, Velvetleaf” value ([7]; 125 g ai/ha, scale 0 to 100) was 0. For the same compound, the “Plant response rating (scale of 0 to 100), Kochia” value (kochia (Kochia scoparia); 16 g ai/ha) was 40, the “Plant response rating (scale of 0 to 100), Kochia” value (kochia (Kochia scoparia); 31 g ai/ha) was 65 and the “Kochia plant response rating” value (kochia (Kochia scoparia); 62 g ai/ha) was 75. The “Kochia plant response rating” value (kochia (Kochia scoparia); 125 g ai/ha) was 90, the “Plant response rating, Kochia” value (kochia (Kochia scoparia); [12]) was 0 and the “Plant response rating, Kochia” value (kochia (Kochia scoparia); [13]) was 0. The “Plant response rating, Kochia” value (kochia (Kochia scoparia); [14]) was 0, the “Plant response rating, Kochia” value (kochia (Kochia scoparia); 125 g ai/ha, scale 0 to 100) was 60 and the “Plant response rating (scale of 0 to 100), Crabgrass” value ([8]; 16 g ai/ha) was 0. For the same compound, the “Plant response rating (scale of 0 to 100), Crabgrass” value ([8]; 31 g ai/ha) was 0, the “Crabgrass plant response rating” value ([8]; 62 g ai/ha) was 0 and the “Crabgrass plant response rating” value ([8]; 125 g ai/ha) was 20. The “Plant response rating, Crabgrass” value [8, 12] was 0, the “Plant response rating, Crabgrass” value [8, 13] was 0 and the “Plant response rating, Crabgrass” value [8, 14] was 0. The “Plant response rating, Crabgrass” value ([8]; 125 g ai/ha, scale 0 to 100) was 60, the “Plant response rating (scale of 0 to 100), Johnsongrass” value ([9]; 16 g ai/ha) was 0 and the “Plant response rating (scale of 0 to 100), Johnsongrass” value ([9]; 31 g ai/ha) was 0. For the same compound, the “Johnsongrass plant response rating” value ([9]; 62 g ai/ha) was 0, the “Johnsongrass plant response rating” value ([9]; 125 g ai/ha) was 0 and the “Plant response rating, Johnsongrass” value [9, 12] was 0. For the same compound, the “Plant response rating, Johnsongrass” value [9, 13] was 0, the “Plant response rating, Johnsongrass” value [9, 14] was 0 and the “Plant response rating, Johnsongrass” value ([9]; 125 g ai/ha, scale 0 to 100) was 75. For the same compound, the “Plant response rating (scale of 0 to 100), Pigweed” value ([10]; 16 g ai/ha) was 60, the “Plant response rating (scale of 0 to 100), Pigweed” value ([10]; 31 g ai/ha) was 70 and the “Pigweed plant response rating” value ([10]; 62 g ai/ha) was 80. The “Pigweed plant response rating” value ([10]; 125 g ai/ha) was 90, the “Plant response rating, Pigweed” value [10, 12] was 0 and the “Plant response rating, Pigweed” value [10, 13] was 0. The “Plant response rating, Pigweed” value [10, 14] was 65, the “Plant response rating, Pigweed” value ([10]; 125 g ai/ha, scale 0 to 100) was 90 and the “Plant response rating (scale of 0 to 100), Surinam Grass” value ([11]; 16 g ai/ha) was 0. The “Plant response rating (scale of 0 to 100), Surinam Grass” value ([11]; 31 g ai/ha) was 0, the “Surinam Grass plant response rating” value ([11]; 62 g ai/ha) was 0 and the “Surinam Grass plant response rating” value ([11]; 125 g ai/ha) was 0. The “Plant response rating, Surinam Grass” value [11, 12] was 0, the “Plant response rating, Surinam Grass” value [11, 13] was 0 and the “Plant response rating, Surinam Grass” value [11, 14] was 100. For the same compound, the “Plant response rating, Surinam Grass” value ([11]; 125 g ai/ha, scale 0 to 100) was 100.
